Laboratory results: article PMC10004634 (PLOS ONE, 2023)
Where two headings read alike, the source gives them in different places.

What was measured:
Assay in all cases: biochemical
Design in all cases: KINOMEscan scanMAX competition binding, DNA-tagged kinases, qPCR read-out, percent control at 300 nM
DDR2 = molecular target: T1, DDR2 (Homo sapiens, UniProt Q16832)
T1 sequence (Q16832 1-855): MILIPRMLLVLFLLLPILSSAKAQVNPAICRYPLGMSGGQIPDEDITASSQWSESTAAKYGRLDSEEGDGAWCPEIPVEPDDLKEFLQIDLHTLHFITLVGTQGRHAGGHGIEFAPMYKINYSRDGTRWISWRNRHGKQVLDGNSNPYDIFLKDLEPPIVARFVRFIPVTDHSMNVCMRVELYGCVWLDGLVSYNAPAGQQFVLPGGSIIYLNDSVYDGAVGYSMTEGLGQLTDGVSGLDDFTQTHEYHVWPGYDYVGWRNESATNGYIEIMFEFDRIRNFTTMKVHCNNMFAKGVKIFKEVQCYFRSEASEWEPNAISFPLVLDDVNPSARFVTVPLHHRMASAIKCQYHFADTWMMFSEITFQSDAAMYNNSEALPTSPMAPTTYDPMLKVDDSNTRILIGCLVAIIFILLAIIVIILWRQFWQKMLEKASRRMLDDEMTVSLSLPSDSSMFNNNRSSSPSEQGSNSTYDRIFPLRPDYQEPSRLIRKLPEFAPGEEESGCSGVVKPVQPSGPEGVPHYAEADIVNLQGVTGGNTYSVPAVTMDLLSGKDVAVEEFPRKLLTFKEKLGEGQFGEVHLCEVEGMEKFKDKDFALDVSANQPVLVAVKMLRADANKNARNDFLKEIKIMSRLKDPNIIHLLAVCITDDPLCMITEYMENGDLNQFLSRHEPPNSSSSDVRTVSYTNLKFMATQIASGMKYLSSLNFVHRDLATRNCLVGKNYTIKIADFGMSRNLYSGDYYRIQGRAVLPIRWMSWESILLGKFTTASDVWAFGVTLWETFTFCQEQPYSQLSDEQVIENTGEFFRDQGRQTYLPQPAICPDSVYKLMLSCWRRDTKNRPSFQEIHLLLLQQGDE

DAPK2 = DAPK2 (Homo sapiens, UniProt Q9UIK4)
DAPK2, sequence (Q9UIK4 whole entry): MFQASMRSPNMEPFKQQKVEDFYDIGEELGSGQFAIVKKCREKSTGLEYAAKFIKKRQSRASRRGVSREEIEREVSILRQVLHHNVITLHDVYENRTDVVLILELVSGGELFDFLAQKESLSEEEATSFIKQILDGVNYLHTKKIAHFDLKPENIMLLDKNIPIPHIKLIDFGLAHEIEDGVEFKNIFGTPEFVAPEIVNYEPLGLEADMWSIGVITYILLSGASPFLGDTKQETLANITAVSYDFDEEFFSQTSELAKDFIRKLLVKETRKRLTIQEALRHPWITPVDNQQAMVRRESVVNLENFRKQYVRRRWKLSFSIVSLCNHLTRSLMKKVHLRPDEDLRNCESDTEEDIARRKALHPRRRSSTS

PRP4 = molecular target: T2, PRP4 (Homo sapiens, UniProt Q13523)
T2 construct: gene PRPF4B
T2 sequence (Q13523 whole entry): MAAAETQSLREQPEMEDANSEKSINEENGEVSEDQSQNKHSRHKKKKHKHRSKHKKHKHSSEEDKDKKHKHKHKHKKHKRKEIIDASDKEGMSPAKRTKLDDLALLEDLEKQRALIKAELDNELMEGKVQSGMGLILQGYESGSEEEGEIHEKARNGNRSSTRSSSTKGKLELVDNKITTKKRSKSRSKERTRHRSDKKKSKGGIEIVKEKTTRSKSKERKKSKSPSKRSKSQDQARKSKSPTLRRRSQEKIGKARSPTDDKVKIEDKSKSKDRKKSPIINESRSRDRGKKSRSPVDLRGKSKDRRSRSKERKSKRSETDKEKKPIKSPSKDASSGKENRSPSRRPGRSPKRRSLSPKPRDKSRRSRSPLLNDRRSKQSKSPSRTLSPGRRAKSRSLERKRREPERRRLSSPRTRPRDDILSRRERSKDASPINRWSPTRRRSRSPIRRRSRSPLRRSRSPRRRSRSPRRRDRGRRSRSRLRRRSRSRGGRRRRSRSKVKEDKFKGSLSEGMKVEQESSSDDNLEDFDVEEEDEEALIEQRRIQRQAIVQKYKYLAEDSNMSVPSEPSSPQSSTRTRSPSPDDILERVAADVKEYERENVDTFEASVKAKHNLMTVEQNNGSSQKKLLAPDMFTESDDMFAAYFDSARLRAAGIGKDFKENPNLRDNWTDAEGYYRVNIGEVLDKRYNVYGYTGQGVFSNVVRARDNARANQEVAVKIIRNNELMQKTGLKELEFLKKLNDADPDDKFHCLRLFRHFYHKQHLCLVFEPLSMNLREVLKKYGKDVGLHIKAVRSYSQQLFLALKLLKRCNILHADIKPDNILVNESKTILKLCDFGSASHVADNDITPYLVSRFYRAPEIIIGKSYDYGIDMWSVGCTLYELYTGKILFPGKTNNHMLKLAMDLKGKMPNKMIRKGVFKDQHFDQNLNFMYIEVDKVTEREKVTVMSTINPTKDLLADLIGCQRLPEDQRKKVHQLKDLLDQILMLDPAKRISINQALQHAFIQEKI

PDGFRB = PDGFRB (Homo sapiens, UniProt P09619)
PDGFRB, sequence (P09619 whole entry): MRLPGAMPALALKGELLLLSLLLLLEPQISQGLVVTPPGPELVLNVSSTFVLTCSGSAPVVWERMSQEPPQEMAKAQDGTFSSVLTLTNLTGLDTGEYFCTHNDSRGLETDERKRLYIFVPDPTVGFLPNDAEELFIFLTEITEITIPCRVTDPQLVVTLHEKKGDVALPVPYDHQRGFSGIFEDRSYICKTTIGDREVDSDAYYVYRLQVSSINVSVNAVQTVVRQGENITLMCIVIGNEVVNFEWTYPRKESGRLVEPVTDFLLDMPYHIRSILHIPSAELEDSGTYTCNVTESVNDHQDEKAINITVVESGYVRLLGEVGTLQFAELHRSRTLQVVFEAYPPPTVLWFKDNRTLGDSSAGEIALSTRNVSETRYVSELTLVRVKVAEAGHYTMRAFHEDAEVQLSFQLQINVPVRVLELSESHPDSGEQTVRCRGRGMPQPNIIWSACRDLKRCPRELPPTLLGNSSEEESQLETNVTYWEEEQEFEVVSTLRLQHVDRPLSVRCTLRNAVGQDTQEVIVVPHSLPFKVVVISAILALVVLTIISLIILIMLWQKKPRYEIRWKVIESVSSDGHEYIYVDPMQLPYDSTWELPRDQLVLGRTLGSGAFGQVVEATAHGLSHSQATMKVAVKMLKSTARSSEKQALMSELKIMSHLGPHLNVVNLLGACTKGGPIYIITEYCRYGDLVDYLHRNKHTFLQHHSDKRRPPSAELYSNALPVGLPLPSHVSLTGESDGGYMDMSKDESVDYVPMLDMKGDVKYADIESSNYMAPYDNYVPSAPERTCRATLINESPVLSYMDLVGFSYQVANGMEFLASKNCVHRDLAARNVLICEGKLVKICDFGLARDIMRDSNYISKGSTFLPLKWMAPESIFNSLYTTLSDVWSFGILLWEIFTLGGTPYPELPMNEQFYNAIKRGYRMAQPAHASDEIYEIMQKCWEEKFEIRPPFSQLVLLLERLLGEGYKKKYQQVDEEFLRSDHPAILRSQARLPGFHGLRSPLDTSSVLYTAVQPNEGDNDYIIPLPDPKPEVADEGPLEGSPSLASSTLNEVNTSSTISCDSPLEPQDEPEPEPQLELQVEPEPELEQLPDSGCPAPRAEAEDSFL

[1] = molecular target: T3, RSK4(Kin.Dom.2-C-terminal) (Homo sapiens, UniProt Q9UK32)
T3 construct: gene RPS6KA6; Kin.Dom.2-C-terminal

NEK4 = NEK4 (Homo sapiens, UniProt P51957)
NEK4, sequence (P51957 whole entry): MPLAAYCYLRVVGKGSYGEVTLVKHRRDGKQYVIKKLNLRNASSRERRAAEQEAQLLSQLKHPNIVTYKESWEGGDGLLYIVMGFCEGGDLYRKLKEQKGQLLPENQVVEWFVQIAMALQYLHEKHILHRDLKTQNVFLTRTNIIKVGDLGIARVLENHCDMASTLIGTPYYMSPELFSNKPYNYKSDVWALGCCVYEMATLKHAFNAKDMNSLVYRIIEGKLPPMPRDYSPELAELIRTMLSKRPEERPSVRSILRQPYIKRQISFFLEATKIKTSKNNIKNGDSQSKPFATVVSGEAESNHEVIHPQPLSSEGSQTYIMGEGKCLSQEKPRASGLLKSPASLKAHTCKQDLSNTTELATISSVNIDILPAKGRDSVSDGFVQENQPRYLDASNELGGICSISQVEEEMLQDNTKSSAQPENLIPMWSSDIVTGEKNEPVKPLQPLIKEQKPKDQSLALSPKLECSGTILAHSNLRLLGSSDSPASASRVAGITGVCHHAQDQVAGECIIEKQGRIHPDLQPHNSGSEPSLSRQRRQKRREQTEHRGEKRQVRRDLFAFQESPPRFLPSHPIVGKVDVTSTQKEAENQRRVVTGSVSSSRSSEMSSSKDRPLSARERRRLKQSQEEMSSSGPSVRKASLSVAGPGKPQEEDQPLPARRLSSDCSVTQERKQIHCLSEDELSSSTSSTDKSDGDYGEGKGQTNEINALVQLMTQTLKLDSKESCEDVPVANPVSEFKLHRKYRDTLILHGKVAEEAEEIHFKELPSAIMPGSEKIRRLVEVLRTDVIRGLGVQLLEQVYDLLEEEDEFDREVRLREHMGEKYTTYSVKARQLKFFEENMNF

ERBB2 = ERBB2 (Homo sapiens, UniProt P04626)
MKNK1 = MKNK1 (Homo sapiens, UniProt Q9BUB5)
CAMK1G = CAMK1G (Homo sapiens, UniProt Q96NX5)
CAMK1G, sequence (Q96NX5 whole entry): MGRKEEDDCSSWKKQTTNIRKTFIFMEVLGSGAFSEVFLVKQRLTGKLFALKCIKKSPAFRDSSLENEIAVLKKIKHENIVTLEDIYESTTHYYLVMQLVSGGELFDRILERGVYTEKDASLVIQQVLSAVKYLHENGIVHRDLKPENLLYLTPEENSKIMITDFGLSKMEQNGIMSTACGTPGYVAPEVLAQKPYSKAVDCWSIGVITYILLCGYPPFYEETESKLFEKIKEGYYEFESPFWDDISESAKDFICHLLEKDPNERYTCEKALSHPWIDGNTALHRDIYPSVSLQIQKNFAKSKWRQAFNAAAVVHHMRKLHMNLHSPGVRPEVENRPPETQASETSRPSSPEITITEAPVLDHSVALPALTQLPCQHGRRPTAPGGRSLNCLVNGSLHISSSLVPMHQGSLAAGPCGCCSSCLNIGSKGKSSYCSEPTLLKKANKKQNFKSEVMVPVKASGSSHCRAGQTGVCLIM

KIT = KIT (Homo sapiens, UniProt P10721)
KIT, sequence (P10721 whole entry): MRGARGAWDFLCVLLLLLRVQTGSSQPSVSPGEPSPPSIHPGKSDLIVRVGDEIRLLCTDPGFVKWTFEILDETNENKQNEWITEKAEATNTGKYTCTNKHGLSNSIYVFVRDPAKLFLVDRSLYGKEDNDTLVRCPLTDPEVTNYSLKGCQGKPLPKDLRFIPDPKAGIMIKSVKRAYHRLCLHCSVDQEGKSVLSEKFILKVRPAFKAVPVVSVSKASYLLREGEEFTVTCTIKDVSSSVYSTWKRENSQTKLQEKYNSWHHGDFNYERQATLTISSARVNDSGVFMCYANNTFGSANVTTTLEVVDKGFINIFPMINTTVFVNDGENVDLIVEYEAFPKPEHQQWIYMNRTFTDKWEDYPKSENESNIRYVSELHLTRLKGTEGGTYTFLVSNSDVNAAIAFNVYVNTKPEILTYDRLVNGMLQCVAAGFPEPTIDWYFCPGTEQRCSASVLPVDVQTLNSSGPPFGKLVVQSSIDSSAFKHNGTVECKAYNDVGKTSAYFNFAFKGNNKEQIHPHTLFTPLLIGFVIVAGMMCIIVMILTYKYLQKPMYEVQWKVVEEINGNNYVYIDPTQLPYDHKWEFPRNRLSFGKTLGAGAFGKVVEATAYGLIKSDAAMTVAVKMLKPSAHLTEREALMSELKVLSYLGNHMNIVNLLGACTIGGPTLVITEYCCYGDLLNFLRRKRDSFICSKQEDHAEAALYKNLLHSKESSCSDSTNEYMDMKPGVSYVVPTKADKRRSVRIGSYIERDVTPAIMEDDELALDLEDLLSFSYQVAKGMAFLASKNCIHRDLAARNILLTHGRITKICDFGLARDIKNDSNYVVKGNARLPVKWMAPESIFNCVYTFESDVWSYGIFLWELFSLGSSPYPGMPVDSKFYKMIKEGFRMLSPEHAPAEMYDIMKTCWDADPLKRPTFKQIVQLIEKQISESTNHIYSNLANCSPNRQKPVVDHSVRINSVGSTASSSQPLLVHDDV

MAP4K3 = molecular target: T4, MAP4K3 (Homo sapiens, UniProt Q8IVH8)
T4 sequence (Q8IVH8 1-894): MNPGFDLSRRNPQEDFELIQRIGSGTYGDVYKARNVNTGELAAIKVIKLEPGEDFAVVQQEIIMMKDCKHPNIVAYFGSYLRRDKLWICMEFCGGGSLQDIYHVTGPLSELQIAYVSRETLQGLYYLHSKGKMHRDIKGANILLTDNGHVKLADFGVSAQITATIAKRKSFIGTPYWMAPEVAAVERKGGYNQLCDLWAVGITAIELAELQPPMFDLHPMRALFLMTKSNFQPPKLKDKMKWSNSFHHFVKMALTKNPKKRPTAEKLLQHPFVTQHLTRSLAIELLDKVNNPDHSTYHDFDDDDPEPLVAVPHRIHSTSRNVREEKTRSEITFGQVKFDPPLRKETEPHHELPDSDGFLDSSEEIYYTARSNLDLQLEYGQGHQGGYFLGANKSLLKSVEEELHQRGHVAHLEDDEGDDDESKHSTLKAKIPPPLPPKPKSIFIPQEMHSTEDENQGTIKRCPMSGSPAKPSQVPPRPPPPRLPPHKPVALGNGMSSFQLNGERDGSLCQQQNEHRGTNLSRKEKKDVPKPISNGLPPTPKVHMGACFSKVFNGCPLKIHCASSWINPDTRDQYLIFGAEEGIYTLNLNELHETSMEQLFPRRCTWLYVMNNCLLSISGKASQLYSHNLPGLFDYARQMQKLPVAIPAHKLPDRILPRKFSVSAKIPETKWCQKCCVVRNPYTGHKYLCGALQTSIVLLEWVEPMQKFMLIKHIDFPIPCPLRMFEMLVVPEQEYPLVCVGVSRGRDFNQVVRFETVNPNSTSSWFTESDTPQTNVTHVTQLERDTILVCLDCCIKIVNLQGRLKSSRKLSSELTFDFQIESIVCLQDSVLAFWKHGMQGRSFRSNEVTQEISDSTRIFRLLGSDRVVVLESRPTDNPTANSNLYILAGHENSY

[2] = read-out: Percent control / Tirabrutinib
[3] = read-out: Percent control / Ibrutinib
[4] = read-out: Percent control / Zanubrutinib
[5] = read-out: Percent control / Acalabrutinib

CC#CC(=O)N1CC[C@@H](n2c(=O)n(-c3ccc(Oc4ccccc4)cc3)c3c(N)ncnc32)C1 [Tirabrutinib]
remaining binding at 0.3 µM (DDR2; [2]): 88%
remaining binding at 0.3 µM (DAPK2; [2]): 88%
remaining binding at 0.3 µM (PRP4; [2]): 99%
remaining binding at 0.3 µM (PDGFRB; [2]): 79%
remaining binding at 0.3 µM [1, 2]: 93%
remaining binding at 0.3 µM (NEK4; [2]): 99%
remaining binding at 0.3 µM (ERBB2; [2]): 36%
remaining binding at 0.3 µM (MKNK1; [2]): 87%
remaining binding at 0.3 µM (CAMK1G; [2]): 98%
remaining binding at 0.3 µM (KIT; [2]): 91%

C=CC(=O)N1CCC[C@@H](n2nc(-c3ccc(Oc4ccccc4)cc3)c3c(N)ncnc32)C1 [Ibrutinib]
remaining binding at 0.3 µM (DDR2; [3]): 80%
remaining binding at 0.3 µM (DAPK2; [3]): 79%
remaining binding at 0.3 µM (PRP4; [3]): 96%
remaining binding at 0.3 µM (PDGFRB; [3]): 38%
remaining binding at 0.3 µM (MKNK1; [3]): 89%
remaining binding at 0.3 µM (MAP4K3; [3]): 89%

C=CC(=O)N1CCC([C@@H]2CCNc3c(C(N)=O)c(-c4ccc(Oc5ccccc5)cc4)nn32)CC1 [Zanubrutinib]
remaining binding at 0.3 µM (DAPK2; [4]): 91%
remaining binding at 0.3 µM (PRP4; [4]): 100%
remaining binding at 0.3 µM (PDGFRB; [4]): 100%
remaining binding at 0.3 µM [1, 4]: 82%
remaining binding at 0.3 µM (NEK4; [4]): 100%
remaining binding at 0.3 µM (ERBB2; [4]): 16%
remaining binding at 0.3 µM (MKNK1; [4]): 100%
remaining binding at 0.3 µM (CAMK1G; [4]): 96%
remaining binding at 0.3 µM (KIT; [4]): 100%
remaining binding at 0.3 µM (MAP4K3; [4]): 91%

CC#CC(=O)N1CCC[C@H]1c1nc(-c2ccc(C(=O)Nc3ccccn3)cc2)c2c(N)nccn12 [Acalabrutinib]
remaining binding at 0.3 µM (DDR2; [5]): 95%
remaining binding at 0.3 µM (PDGFRB; [5]): 93%
remaining binding at 0.3 µM [1, 5]: 95%
remaining binding at 0.3 µM (NEK4; [5]): 88%
remaining binding at 0.3 µM (ERBB2; [5]): 11%
remaining binding at 0.3 µM (MKNK1; [5]): 84%
remaining binding at 0.3 µM (CAMK1G; [5]): 97%
remaining binding at 0.3 µM (KIT; [5]): 91%
remaining binding at 0.3 µM (MAP4K3; [5]): 94%
